Laboratory results from patent US20210121577A1, “FILM COATED TABLET FOR THE TREATMENT OF ACUTE PAIN” (SANOFI-AVENTIS DEUTSCHLAND GMBH, priority 2014, published 2021).

Test system: post-operative dental pain
Experiment: Clinical trial in patients with post-operative dental pain (model for acute pain), randomized double-blind parallel-group
Type: in vivo
Conditions: single dose, ibuprofen 400 mg, caffeine 100 mg or fixed combination
Method: Male and female patients between the ages of 18 and 55 years, scheduled for the extraction of 3 to 4 unsound wisdom teeth, with at least 2 extracted molars were recruited; the baseline of dental pain intensity must be at least moderate on a verbal evaluation scale and at least 5 on a numerical evaluation scale ranging from 0 to 10.
The pain intensity (PI) was evaluated in a diary before administration and at 0.25, 0.5, 0.75, 1, 1.5, 2, 3, 4, 5, 6, 7 and 8 hours after the first dose of the study medication using an 11-point numerical rating scale (NPRS) from 0=“no pain” to 10=“worst possible pain”.
The pain relief (PAR) beginning from pain onset was evaluated in a patient diary using a 5-point rating scale (VRS) (0=no pain relief; 1=a little pain relief; 2=some pain relief; 3=much pain relief; 4=complete pain relief) at the same time points as for the PI evaluation.
As soon as a patient needed an emergency medication or a second dose of the medication within less than 8 hours, PI and PAR were evaluated before the emergency medication or second dose was administered.
The time-weighted sum of pain relief (PAR) and the pain intensity difference (PID) relative to baseline between 0 and 8 hours is determined as follows:
Higher values of the SPRID0-8 h likewise indicate greater benefit for the patient.

CC(C)Cc1ccc(C(C)C(=O)O)cc1 (racemic) [Ibuprofen, (+/−) 2-(p-isobutylphenyl)-propionic acid]
Median duration of action (Kaplan-Meyer analysis): 7.1 h | Adjusted Mean SPRID0-8 h value (time-weighted sum of pain relief and pain intensity difference from 0 to 8 hours) (study stage 1, primary endpoint, higher = greater benefit): 40.165 | Adjusted Mean SPRID0-2 h value (time-weighted sum of PAR and PID from 0 to 2 hours) (study stage 1, secondary endpoint): 6.990
